In patent US20100298437A1, “USE OF CITRULLINE FOR TREATING UNDERNUTRITION CONDITIONS” (UNIVERSITE RENE DESCARTES-PARIS 5, priority 2006, published 2010):

Tests used:
[1] = test system: epitrochlearis; assay: Muscle protein synthesis (FSR) measured in vitro on isolated incubated muscle; design: species or system rat; details: for increase of muscle protein synthesis (FSR): isolated muscle of undernourished adult rats, 2.5 mM citrulline, 2 hours incubation, versus control without citrulline
Method: Treatment of animals: Male Sprague-Dawley rats (Charles River Laboratoires, L'Arbresles, France) aged 3 months (n=20) are placed in individual cages in a thermostated atmosphere (23°±1° C.), and subjected to a 12 hr light/dark cycle (dark between 8 a.m.-8 p.m.).
Acclimatization of the rats is carried out during 2 weeks, during which the spontaneous food consumption is measured. The rats are fed a standard diet (A04, UAR, Villemoisson-sur-Orge, France) containing 17% proteins, 3% lipids, 59% carbohydrates and 21% water, fibers, vitamins and minerals. The average dietary intake during this period is 28 g/day for adult rats.
At the end of the acclimatization period, the rats are randomized in 2 groups: a control group made up of rats which are fed ad libitum (AL), and a group which is subjected to dietary restrictions during the same period: the rats are fed at a rate of 50% of spontaneous ingesta during 6 weeks with a 5% protein diet (Walrand S, Chambon-Savanovitch C, Felgines C, Chassagne J, Raul F, Normand B et al. Aging: a barrier to renutrition? Nutritional and immunologic evidence in rats. Am J Clin Nutr 2000; 72:816-824).
Incubated isolated muscles. Muscles were incubated according to a method which had been used previously (Minet-Quinard R, Moinard C, Villie F, Vasson M P, Cynober L. Metabolic pathways implicated in the kinetic impairment of muscle glutamine homeostasis in adult and old glucocorticoid-treated rats. Am J Physiol Endocrinol Metab 2004; 287:E671-E676). Epitrochlearis is used because it is the most suitable for this type of study. […] At the end of the incubation, the muscles are collected and kept at −80° C. until the incorporation of ^13C-phenylalanine is measured by mass spectrometry in order to determine the Fractional Protein Synthesis (FSR) (Guillet C, Boirie Y, Walrand S. An integrative approach to in-vivo protein synthesis measurement: from whole tissue to specific proteins. Curr Opin Clin Nutr Metab Care 2004; 7:531-538). […]

[2] = test system: epitrochlearis; assay: Metabolism of citrulline by isolated incubated muscle (amino acids titrated in incubation medium); assay type: in vitro ADME, rat; details: isolated muscle of healthy or undernourished adult rats, no metabolically linked amino acid released in incubation medium (results not shown)
Method: Incubated isolated muscles. Muscles were incubated according to a method which had been used previously (Minet-Quinard R, Moinard C, Villie F, Vasson M P, Cynober L. Metabolic pathways implicated in the kinetic impairment of muscle glutamine homeostasis in adult and old glucocorticoid-treated rats. Am J Physiol Endocrinol Metab 2004; 287:E671-E676). Epitrochlearis is used because it is the most suitable for this type of study. After dissection, the epitrochlearis are incubated in 3 mL Krebs-Ringer buffer (119 mM NaCl; 4.8 mM KCl; 1.25 mM MgSO4; 25 mM NaHCO3; 1.24 mM NaHPO4; 1.0 mM CaCl2; 2 mM HEPES, pH 7.4), also containing glucose (8 mM), insulin (0.01 U/ml) and bovine serum albumin (BSA) (0.1% p/v). The muscles are pre-incubated during 30 minutes at 37° C. with 95% O2: 5% CO2. The muscles are then transferred into a tube containing 3 mL incubation medium (with ^13C-phenylalanine (1 mM) with or without 2.5 mM citrulline), and are incubated during 2 hours. At the end of the incubation, the muscles are collected and kept at −80° C. until the incorporation of ^13C-phenylalanine is measured by mass spectrometry in order to determine the Fractional Protein Synthesis (FSR) (Guillet C, Boirie Y, Walrand S. An integrative approach to in-vivo protein synthesis measurement: from whole tissue to specific proteins. Curr Opin Clin Nutr Metab Care 2004; 7:531-538). […]

[3] = test system: P70S6kinase; assay: In vivo activation of the mTOR pathway: P70S6kinase by Western Blot in tibialis muscles of undernourished aged rats; design: species or system rat; details: tibialis muscle
Method: Treatment of animals: Forty male Sprague-Dawley rats aged 19 months (Charles River, L'Arbresle, France) were used. During an acclimatization period of 2 weeks the animals were fed ad libitum with a standard diet (UARA04, Usine d'Alimentation Rationnelle, Villemoisson-sur-Orge). Measurement of the spontaneous ingesta was carried out regularly. After this period 30 rats were subjected to a 50% dietary restriction during 12 weeks. Sacrificing 10 rats, used as a control group (group R), was carried out at the end of the dietary restriction period. The other 20 animals were again fed during one week before being sacrificed. Isonitrogen and isocaloric diets were either a standard diet enriched with citrulline 5 g/kg/d (n=10, group R+CIT), or a standard diet enriched with non essential amino acids (Ala, Gly, His, Asp, Ser in an equimolar ratio) (n=10, group R+AANE). Ten rats make up the control group (A.L); they are fed ad libitum all along the study before being sacrificed. Then the rats are sacrificed. The tibialis muscles are taken and quickly frozen in liquid nitrogen, then stored at −80° C. until analysis.
Extraction of proteins and titration: The muscles are ground in liquid nitrogen with a mortar. The thus obtained powder is weighed, and then taken again in 10 volumes of a solubilization buffer containing a cocktail of phosphatase and protease inhibitors. […]

[4] = enteral administration, rats with intestinal insufficiency; from FR 03 08349; cited from earlier work
[5] = undernourished aged rats, former studies of the inventors; cited from earlier work

## NC(=O)NCCC[C@H](N)C(=O)O [L-citrulline]
[1]
  increase of muscle protein synthesis (FSR): +27%
[1]; listed as citrulline
  increase of muscle protein synthesis (FSR): up to 30%
[1]; isolated muscles of healthy adult rats, citrulline added in vitro
  effect on protein synthesis: no effect
[2]; listed as Citrulline
  metabolism of citrulline by the muscle: not metabolized
[2]; listed as citrulline
  metabolism of citrulline by the muscle: no capacity to metabolize
[3]; 12 weeks 50% dietary restriction, then one week diet enriched with citrulline 5 g/kg/d
  activity of P70S6 kinase as compared with group R: +417%
[3]; dietary restriction, then one week enriched diet
  activity of P70S6 kinase compared with control group A.L. (in words): not being significantly different
[4]
  body weight: allowed these rats to take on weight again
[5]
  protein synthesis level: restore a protein synthesis level which is equivalent to the baseline protein synthesis level among healthy aged rats
